Assays:
[1] = tested on: hematopoietic stem cells derived from cord blood; experiment: Enhancement of HSCs derived from cord blood with Compound 1.008 (Example 34); assay type: cell-based
Description: A frozen cord blood sample was thawed and gradually brought to room temperature. Thawed cord blood was incubated in an in vitro culture media of Alpha MEM without phenol red, 10% (v/v) heat inactivated fetal bovine serum (FBS). Four samples were tested: Base conditions, +SF Conditions, +1.008 Conditions, and +1.008/+ER conditions. The components included in each condition is described in [0574] Table 4. Each condition tested also included an antibiotic solution that includes penicillin, streptomycin, and amphotericin B to avoid contamination.
(§1) Cultures were incubated at […] (controlled by nitrogen) and 5% CO2.
(§2) Small molecule components were added separately and fresh each time the media needs to be refreshed. Cytokines can be stored together. Media renewal should occur at least every few days.
(§3) On the days indicated varying amounts of the cell culture was removed for data analysis (flow cytometry using a BD FACS ARIA II) and to avoid overcrowding of cells. The culture volume was replenished with fresh media according to the conditions tested. The data reported accounts for the dilution factor introduced in this procedure.

[2] = tested on: CD34+ cells isolated from donor peripheral blood; experiment: Enhancement of HSCs derived from non-mobilized peripheral blood with compounds of Formula I (Example 33); assay type: cell-based; conditions: normalized fold change days 2 to 7
Description: CD34+ cells were isolated from donor peripheral blood. Standard buffy coat separation using ficoll paque was performed. Cells were pelleted and incubated with unlabeled CD64 antibody. Cells then underwent negative depletion using biotinylated CD2, CD3, CD4, CD5, CD8, CD11b, CD14, CD16, CD19, CD20, CD45RA, CD56, CD235 (in some examples CD15, CD25 and other lineage specific antibodies may also be used). Cells which bind these antibodies are depleted using streptavidin beads. The enriched progenitor pool then undergoes cell sorting for CD34+.
Isolated CD34+ cells were incubated in an in vitro culture media of Alpha MEM without phenol red with 10% (v/v) heat inactivated fetal bovine serum (FBS). When testing compounds of Formula I, two internal controls were used: a positive control (+SF conditions) and a baseline control (i.e. basic conditions (“cytokines only”)). The media components and concentrations used for the compounds tested are described in [0563] Table 2. The culture also included an antibiotic solution that includes penicillin, streptomycin, and amphotericin B to avoid contamination. Controls were included because the amount of expansion in samples obtained varies from individual to individual.
as §1, §2
as §3, with “one-half of the volume” for “varying amounts”, “II).” for “II) and to avoid overcrowding of cells.”
Separate experiments were performed for each compound tested (Compound 1.001-1.023).
(§4) Table 3, below, summarizes the relative expansive effect of Compound 1.001 to 1.023 (sample compounds) at the indicated concentration. The data in Table 3 is reported as the relative expansive effect. The relative expansive effect is a normalized value of the fold changes shown in each of FIG. 1-FIG. 23. It is calculated as shown below: […]

[3] = tested on: CD34+ cells from cord blood; experiment: Expansion of cord blood CD34+ cells, seven-day culture (Example 35); assay type: cell-based, human; conditions: normalized fold change days 1 to 7
Description: CD34+ cells from cord blood were purchased from STEMCELL Technologies. Primary human CD34+ cells were isolated from cord blood samples using positive immunomagnetic separation techniques. Cells were thawed and gradually brought to room temperature. Samples were washed, then placed in overnight culture in StemSpan with 100 ng/ml each of FLT3L, TPO, SCF, and TL-6. Eighteen to twenty-four hours later (day 1), cells were counted and immunophenotyped (flow cytometry on an Invitrogen Attune N×T cytometer).
Approximately 1000 live cells were plated into each well of 96-well plates; exact cell numbers dispensed per well were quantified with flow cytometry for later calculations.
Media for testing compounds of Formula I was prepared using Alpha MEM without phenol red, 10% (v/v) heat inactivated fetal bovine serum. Culture conditions also included an antibiotic solution that includes penicillin, streptomycin, and amphotericin B to avoid contamination. Additional media components and concentrations used for the compounds tested are described in Table 5.
All incubations for this experiment took place at 3% oxygen (controlled by nitrogen) and 5% CO2. Following seven days of culture, cells from wells were collected and phenotypes were analyzed (flow cytometry on an Invitrogen Attune N×T cytometer).
as §4, with “6” for “3,”, “the screened compounds” for “Compound 1.001 to 1.023 (sample compounds)”, “6” for “3”, “the figures.” for “FIG. 1-FIG. 23.”

[4] = +1.008 conditions (Compound 1.008 250 nM), 19 days in culture

CC(C)(C)C(=O)Nc1ccc2c(c1)C(=O)c1cc(N)ccc1-2 [Compound 1.008, N-(7-amino-9-oxo-9H-fluoren-2-yl)pivalamide]
fold increase in CD34+/CD133+ cells from day 2 [1, 4]: greater than 50 fold | fold increase in CD34+/CD133+/CD90+ cells from day 2 [1, 4]: ~20 fold | fold increase in CD34+/CD133+/CD90+/CD38low/− cells from day 2 [1, 4]: > 12 fold | fold increase in CD34+ cells from day 2 ([1]; +1.008 conditions (Compound 1.008 250 nM, TPO, SCF, FLT3L), 19 days in culture): greater than 50 fold | CD90 effect (relative expansive effect on CD34+/CD133+/CD90+ cells) ([2]; sample compound 4 μM): +++++ (1.25 ≤ x) | CD133 effect (relative expansive effect on CD34+/CD133+ cells) ([2]; sample compound 4 μM): +++ (0.55 ≤ x < 0.9) | CD90 effect (relative expansive effect on CD34+/CD133+/CD90+ cells) ([3]; sample compound 8 μM): ++++ (2.16 ≤ x < 2.52) | CD133 effect (relative expansive effect on CD34+/CD133+ cells) ([3]; sample compound 8 μM): ++++ (2.16 ≤ x < 2.52)

CC(=O)Nc1ccc2c(c1)C(=O)c1ccccc1-2 [Compound 1.009, N-(9-oxo-9H-fluoren-2-yl)acetamide]
CD90 effect (relative expansive effect on CD34+/CD133+/CD90+ cells) ([2]; sample compound 2 μM): +++++ (1.25 ≤ x) | CD133 effect (relative expansive effect on CD34+/CD133+ cells) ([2]; sample compound 2 μM): +++++ (1.25 ≤ x) | CD90 effect (relative expansive effect on CD34+/CD133+/CD90+ cells) ([3]; sample compound 0.5 μM): +++ (1.8 ≤ x < 2.16) | CD133 effect (relative expansive effect on CD34+/CD133+ cells) ([3]; sample compound 0.5 μM): +++ (1.8 ≤ x < 2.16)

CC(C)(C)C(=O)Nc1ccc2c(c1)/C(=N/O)c1ccccc1-2 [Compound 1.013, N-(9-(hydroxyimino)-9H-fluoren-2-yl)pivalamide]
CD90 effect (relative expansive effect on CD34+/CD133+/CD90+ cells) ([2]; sample compound 4 μM): +++ (0.55 ≤ x < 0.9) | CD133 effect (relative expansive effect on CD34+/CD133+ cells) ([2]; sample compound 4 μM): +++ (0.55 ≤ x < 0.9) | CD90 effect (relative expansive effect on CD34+/CD133+/CD90+ cells) ([3]; sample compound 2 μM): +++++ (2.52 ≤ x) | CD133 effect (relative expansive effect on CD34+/CD133+ cells) ([3]; sample compound 2 μM): ++++ (2.16 ≤ x < 2.52)

CC(C)(C)C(=O)Nc1cc2c(cc1O)-c1ccccc1C2=O [Compound 1.014, N-(3-hydroxy-9-oxo-9H-fluoren-2-yl)pivalamide]
CD90 effect (relative expansive effect on CD34+/CD133+/CD90+ cells) ([2]; sample compound 8 μM): +++ (0.55 ≤ x < 0.9) | CD133 effect (relative expansive effect on CD34+/CD133+ cells) ([2]; sample compound 8 μM): ++ (0.2 ≤ x < 0.55) | CD90 effect (relative expansive effect on CD34+/CD133+/CD90+ cells) ([3]; sample compound 8 μM): ++ (1.44 ≤ x < 1.8) | CD133 effect (relative expansive effect on CD34+/CD133+ cells) ([3]; sample compound 8 μM): ++ (1.44 ≤ x < 1.8)

CC(C)(C)C(=O)Nc1ccc2c(c1)C(N)c1ccccc1-2 (stereo not shown) [Compound 1.015, N-(9-amino-9H-fluoren-2-yl)pivalamide]
CD90 effect (relative expansive effect on CD34+/CD133+/CD90+ cells) ([2]; sample compound 2 μM): ++++ (0.9 ≤ x < 1.25) | CD133 effect (relative expansive effect on CD34+/CD133+ cells) ([2]; sample compound 2 μM): +++ (0.55 ≤ x < 0.9) | CD90 effect (relative expansive effect on CD34+/CD133+/CD90+ cells) ([3]; sample compound 0.5 μM): ++ (1.44 ≤ x < 1.8) | CD133 effect (relative expansive effect on CD34+/CD133+ cells) ([3]; sample compound 0.5 μM): ++ (1.44 ≤ x < 1.8)

CCOC1c2ccccc2-c2ccc(NC(C)=O)cc21 (stereo not shown) [Compound 1.021, N-(9-ethoxy-9H-fluoren-2-yl)acetamide]
CD90 effect (relative expansive effect on CD34+/CD133+/CD90+ cells) ([2]; sample compound 8 μM): ++ (0.2 ≤ x < 0.55) | CD133 effect (relative expansive effect on CD34+/CD133+ cells) ([2]; sample compound 8 μM): ++ (0.2 ≤ x < 0.55) | CD90 effect (relative expansive effect on CD34+/CD133+/CD90+ cells) ([3]; sample compound 8 μM): + (x < 1.44) | CD133 effect (relative expansive effect on CD34+/CD133+ cells) ([3]; sample compound 8 μM): + (x < 1.44)

CC(=O)Nc1ccc2c(c1)C(OC(C)=O)c1ccccc1-2 (stereo not shown) [Compound 1.022, 2-acetamido-9H-fluoren-9-yl acetate]
CD90 effect (relative expansive effect on CD34+/CD133+/CD90+ cells) ([2]; sample compound 32 μM): +++++ (1.25 ≤ x) | CD133 effect (relative expansive effect on CD34+/CD133+ cells) ([2]; sample compound 32 μM): +++ (0.55 ≤ x < 0.9) | CD90 effect (relative expansive effect on CD34+/CD133+/CD90+ cells) ([3]; sample compound 8 μM): ++ (1.44 ≤ x < 1.8) | CD133 effect (relative expansive effect on CD34+/CD133+ cells) ([3]; sample compound 8 μM): +++ (1.8 ≤ x < 2.16)

CCOC1c2ccccc2-c2ccc(NC(=O)C(C)(C)C)cc21 (stereo not shown) [Compound 1.023, N-(9-ethoxy-9H-fluoren-2-yl)pivalamide]
CD90 effect (relative expansive effect on CD34+/CD133+/CD90+ cells) ([2]; sample compound 32 μM): ++ (0.2 ≤ x < 0.55) | CD133 effect (relative expansive effect on CD34+/CD133+ cells) ([2]; sample compound 32 μM): + (x < 0.2) | CD90 effect (relative expansive effect on CD34+/CD133+/CD90+ cells) ([3]; sample compound 8 μM): ++ (1.44 ≤ x < 1.8) | CD133 effect (relative expansive effect on CD34+/CD133+ cells) ([3]; sample compound 8 μM): ++ (1.44 ≤ x < 1.8)

ER50891 [reference compound]
fold increase levels of HSC populations on addition of ER50891 ([1]; ER50891 100 nM added to Compound 1.008 250 nM (+1.008/+ER conditions), compared with +1.008 alone): even further improved
